Assay results from patent US20050288347A1, “Certain triazole-based compounds, compositions, and uses thereof” (priority 2004, published 2005).
Entries after “also recorded” stand apart in the source; their conditions may differ. Where two headings read alike, the source gives them in different places.

Target: protein kinase
Assay: HTS ATP-utilizing enzyme assay, off-chip mobility-shift format (Caliper HTS 250)
Assay type: biochemical, human
Details: for Kinase: kinase(s) for which the compound exhibits protein kinase inhibitory activity, active = greater than three-sigma from the mean activity of inactive compounds
In short: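 Kinase reactions ran 2.5 h at 20 to 22 °C with test compound at 10 μM, in a HEPES pH 7.5 master buffer containing Triton X-100 and BSA. Peptide substrate and phosphorylated product separated by mobility shift; inhibition normalized to DMSO (0%) and EDTA (100%) controls, with three-sigma thresholds for hits.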

[1] = test compound 10 μM, active = activity greater than three-sigma from the mean of the predominately inactive population for that enzyme

| SMILES | Kinase (test compound 10 μM) | protein kinase against which the compound exhibits inhibitory activity (Table 3) [1] | also measured |
| --- | --- | --- | --- |
| Cn1c(SCC(=O)c2ccccc2)nnc1-c1ccncc1 [2-(4-methyl-5-(pyridin-4-yl)-4H-1,2,4-triazol-3-ylthio)-1-phenylethanone] | PKA and MSK1 and AURORA-A |  |  |
| Oc1ccc(-c2nnc(SCc3ccccc3)n2Cc2ccco2)cc1 [4-(5-(benzylthio)-4-(furan-2-ylmethyl)-4H-1,2,4-triazol-3-yl)phenol] |  | GSK3-β and GSK3-α and MSK2 |  |
| Cc1ccc(-c2nnc(SCCC(=O)O)n2-c2ccc(C)cc2)cc1 [3-(4,5-dip-tolyl-4H-1,2,4-triazol-3-ylthio)propanoic acid] |  | DAPK1 |  |
| CCn1c(SCC(=O)NNC(=O)Cc2ccccc2)nnc1-c1ccc(Cl)cc1 |  | FYN |  |
| Cc1ccc(OCc2nnc(SC(C)C(=O)O)n2-c2ccccc2)cc1 (stereo not shown) [2-(4-phenyl-5-(p-tolyloxymethyl)-4H-1,2,4-triazol-3-ylthio)propanoic acid] | AURORA-A |  |  |
| N#CCSc1nnc(CNc2ccc(Cl)cc2)n1Cc1ccccc1 | MSK1 |  |  |
| COc1ccccc1-n1c(SCc2ccc(Cl)nc2)nnc1-c1cccc(Cl)c1 |  | ROCK2 |  |
| CCOc1ccc2nc(NC(=O)CSc3nnc(-c4ccncc4)n3CC3CCCO3)sc2c1 (stereo not shown) | PDGFRR-α and GSK3-α and ABL1 |  |  |
| Cc1nnc(SCc2ccccc2)n1Cc1ccco1 [3-(benzylthio)-4-(furan-2-ylmethyl)-5-methyl-4H-1,2,4-triazole] |  | GSK3-α |  |
| CCn1c(CNc2ccc(C)cc2)nnc1SCC(=O)Nc1ccccc1OC | AURORA-A |  |  |
| COc1ccc(NCc2nnc(SCC#N)n2-c2ccccc2OC)cc1 | FYN |  |  |
| CCOC(=O)c1ccc(NC(=O)CSc2nnc(C)n2CCOC)cc1 | AKT1 |  |  |
| Cc1ccc(NC(=O)CSc2nnc(CNc3ccc(F)cc3)n2CC2CCCO2)cc1 (stereo not shown) | AURORA-A |  |  |
| Oc1ccccc1-c1nnc(S)n1CCc1ccccc1 [2-(5-mercapto-4-phenethyl-4H-1,2,4-triazol-3-yl)phenol] | CDK2-cyclinE; also recorded: DAPK1 |  |  |
| COc1ccccc1-n1c(SCC(=O)Nc2cc(NC(=O)c3ccco3)ccc2C)nnc1-c1ccccc1O |  | AURORA-A |  |
| COC(=O)c1ccccc1NC(=O)CSc1nnc(-c2ccc(O)cc2)n1Cc1ccco1 | GSK3-β and MSK2 and GSK3-α |  |  |
| CC(C)(C)c1ccc(CSc2nnc(-c3ccncc3)n2Cc2ccco2)cc1 |  | MAPKAPK-2 |  |
| O=C(CSc1nnc(-c2ccc(O)cc2)n1Cc1ccco1)Nc1nc2c(s1)CCCC2 | GSK3-β; also recorded: GSK3-α |  |  |
| CCn1c(SCC(=O)OC)nnc1-c1ccccc1 [methyl 2-(4-ethyl-5-phenyl-4H-1,2,4-triazol-3-ylthio)acetate] | MAPKAPK-2 |  |  |
| Cn1c(SCC(=O)N2c3ccccc3Sc3ccccc32)nnc1-c1cc2ccccc2cc1O | AURORA-A |  |  |
| O=C(CSc1nnc(-c2ccc(O)cc2)n1Cc1ccco1)Nc1nccs1 | GSK3-β and GSK3-α and MSK2 |  |  |
| COc1cc(NC(=O)CSc2nncn2N)cc(OC)c1 [2-(4-amino-4H-1,2,4-triazol-3-ylthio)-N-(3,5-dimethoxyphenyl)acetamide] | DYRK2 |  |  |
| O=C(O)CSc1nnc(-c2ccco2)n1CC1CCCO1 (stereo not shown) | AURORA-A |  |  |
| O=C(CSc1nnc(-c2ccc(O)cc2)n1Cc1ccccc1)OC1CCCCC1 | GSK3-α; also recorded: GSK3-β |  |  |
| CN1C=NN(c2cc3ccccc3cc2O)C1SCc1nnc(-c2ccccc2)o1 (stereo not shown) |  | GSK3-β; also recorded: GSK3-α |  |

| SMILES | Kinase (test compound 10 μM) | protein kinase against which the compound exhibits inhibitory activity (Table 3) [1] | also measured |
| --- | --- | --- | --- |
| CCOC(=O)CN(C(=O)CSc1nnc(CNc2ccc(F)cc2)n1-c1ccccc1)c1ccccc1 | LCK |  |  |
| CN(C)CCCSc1nnc(C(C)(C)C)[nH]1 [3-(5-tert-butyl-4H-1,2,4-triazol-3-ylthio)-N,N-dimethylpropan-1-amine] |  | c-TAK1 |  |
| COc1ccc(-c2nnc(SCc3nnc(-c4ccccc4)o3)n2C)cc1OC |  | GSK3-α; also recorded: CHEK2 |  |
| CCOC(=O)CN(C(=O)CSc1nnc(-c2ccncc2)n1Cc1ccco1)c1cccc([N+](=O)[O-])c1 | FYN and GSK3-α |  |  |
| COc1ccccc1-n1c(SCCCCc2ccccc2)nnc1-c1cc(C)n[nH]1 |  |  | protein kinase against which the compound exhibits inhibitory activity (Table 3): MAPKAPK-3 |
| COc1ccc(N)cc1Cc1nnc(SCc2c(Cl)cccc2Cl)n1-c1ccccc1 |  | PDGFRR-α and FLT-3 and FYN |  |
| COc1ccc(C)cc1NC(=O)CSc1nnc(-c2ccc(Br)cc2)n1-c1ccccc1 | SYK |  |  |
| COc1cccc(NC(=O)CSc2nnc(COc3cccc(C)c3)n2C)c1 | GSK3-α; also recorded: CDK2-cyclinE |  |  |
| FC(F)Oc1ccccc1CSc1nnc(-c2cc(-c3ccccc3)nc3ccccc23)n1Cc1ccco1 |  | c-TAK1 |  |
| c1ccc(CSc2nnc(-c3ccncc3)n2-c2ccccc2)cc1 [4-(5-(benzylthio)-4-phenyl-4H-1,2,4-triazol-3-yl)pyridine] |  | AURORA-A |  |
| Cn1c(SCC(=O)c2ccc3c(c2)OCCO3)nnc1C1CC1 | AURORA-A and FYN |  |  |
| NC(=O)CSc1nnc(CNc2ccc(F)cc2)n1Cc1ccccc1 | GSK3-β and AKT1 and GSK3-α |  |  |
| O=C(O)CSc1nnc(COc2ccc(Cl)cc2)[nH]1 [2-(5-((4-chlorophenoxy)methyl)-4H-1,2,4-triazol-3-ylthio)acetic acid] | GSK3-B β; also recorded: GSK3-α |  |  |
| COCCn1c(SCC(=O)OC(C)C)nnc1-c1cc2ccccc2cc1O | FYN |  |  |
| N#Cc1ccccc1CSc1nnc(-c2ccc(OC(F)(F)F)cc2)[nH]1 |  | AURORA-A |  |
| c1ccc(CCSc2nnc(-c3cccs3)[nH]2)cc1 [3-(phenethylthio)-5-(thiophen-2-yl)-4H-1,2,4-triazole] |  | AURORA-A; also recorded: FLT-3 |  |
| CCn1c(SC(C)C(=O)Nc2ccccc2C)nnc1-c1ccc([N+](=O)[O-])cc1 (stereo not shown) [2-(4-ethyl-5-(4-nitrophenyl)-4H-1,2,4-triazol-3-ylthio)-N-o-tolylpropanamide] | DAPK1 |  |  |
| O=C(CSc1nnc(-c2ccc([N+](=O)[O-])cc2)n1CC1CCCO1)N1CCOCC1 (stereo not shown) | PDGFRR-α |  |  |
| C=CCn1c(SCC(=O)O)nnc1-c1ccc([N+](=O)[O-])cc1 [2-(4-allyl-5-(4-nitrophenyl)-4H-1,2,4-triazol-3-ylthio)acetic acid] | GSK3-β |  |  |
| CCOC(=O)CN(C(=O)CSc1nnc(-c2ccc([N+](=O)[O-])cc2)n1C)c1ccccc1 | PDGFRR-α and FYN |  |  |
| COc1ccc(-n2c(C)nnc2S)cc1 [4-(4-methoxyphenyl)-5-methyl-4H-1,2,4-triazole-3-thiol] | AURORA-A |  |  |
| O=[N+]([O-])c1ccc(-c2nnc(SCCN3CCOCC3)n2-c2ccccc2)cc1 [4-(2-(5-(4-nitrophenyl)-4-phenyl-4H-1,2,4-triazol-3-ylthio)ethyl)morpholine] |  | PDGFRR-α |  |
| Cc1ccc(NCc2nnc(SCc3ccc(C(C)(C)C)cc3)n2-c2ccc(C)cc2)cc1 |  | AURORA-A and SYK |  |
| C=CCNC(=O)CSc1nnc(-c2ccccc2O)n1-c1ccc(C)cc1 [N-allyl-2-(5-(2-hydroxyphenyl)-4-p-tolyl-4H-1,2,4-triazol-3-ylthio)acetamide] | AURORA-A |  |  |
